This passage reports IC50 and mode of inhibition results from article PMC8179437 (Chemical Science, 2021).

For orientation: IC50 means the concentration at which inhibition is half-maximal.

The structures appear in SMILES notation. Bounds are passed on as bounds.

In assay [1] the target is T1, TDP1 (Homo sapiens, UniProt Q9NUW8). The assay is described as follows: TDP1 gel-based in vitro assay. In kind it is biochemical. To be noted: Table 1 and main text.
Assay [2] deals with T1, TDP1. The experiment in a line: TDP1 Lineweaver–Burk analysis. In kind it is biochemical.

T1 sequence (Q9NUW8 whole entry): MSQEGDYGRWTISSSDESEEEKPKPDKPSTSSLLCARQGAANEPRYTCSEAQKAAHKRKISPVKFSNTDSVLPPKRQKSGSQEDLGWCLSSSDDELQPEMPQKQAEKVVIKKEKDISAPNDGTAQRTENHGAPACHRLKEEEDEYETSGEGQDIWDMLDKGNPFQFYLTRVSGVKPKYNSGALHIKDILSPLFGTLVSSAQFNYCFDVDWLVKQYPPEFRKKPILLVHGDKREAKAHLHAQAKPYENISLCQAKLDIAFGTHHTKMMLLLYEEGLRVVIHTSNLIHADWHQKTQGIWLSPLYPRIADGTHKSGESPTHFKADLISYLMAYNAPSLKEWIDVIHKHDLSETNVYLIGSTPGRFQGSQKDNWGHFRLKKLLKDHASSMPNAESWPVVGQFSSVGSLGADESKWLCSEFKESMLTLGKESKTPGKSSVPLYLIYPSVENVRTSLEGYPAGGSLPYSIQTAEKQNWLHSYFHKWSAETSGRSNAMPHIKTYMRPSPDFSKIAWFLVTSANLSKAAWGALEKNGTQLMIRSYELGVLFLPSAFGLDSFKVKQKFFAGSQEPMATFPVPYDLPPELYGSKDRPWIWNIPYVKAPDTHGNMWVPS

At TDP1 [1], `c1ccc(Nc2c(-c3ccccc3)nc3ccccn23)cc1` [Compound 6t, N,2-Diphenylimidazo[1,2-a]pyridin-3-amine] registered an IC50 greater than 100 µM.

For `O=C(O)c1ccc(Nc2c(-c3ccccc3)nc3cnccn23)cc1` [Compound 7b, 4-((2-Phenylimidazo[1,2-a]pyrazin-3-yl)amino)benzoic acid], at TDP1 [2], the mode of inhibition entry is “competitive”.

With `O=C(O)c1ccc(Nc2c(-c3ccccc3)nc3ccccn23)cc1` [Compound 8a, 4-((2-Phenylimidazo[1,2-a]pyridin-3-yl)amino)benzoic acid], on TDP1 [2], the mode of inhibition result is “competitive”.

On to `O=C(O)c1ccc(Nc2c(-c3ccc(O)cc3)nc3ccccn23)cc1` [Compound 8f, 4-((2-(4-Hydroxyphenyl)imidazo[1,2-a]pyridin-3-yl)amino)benzoic acid], for which the IC50 at TDP1 [1] was greater than 100 µM.

Regarding `O=C(O)c1ccc(Nc2c(-c3ccc(C(=O)O)cc3)nc3ccccn23)cc1` [Compound 8h, 4-(3-((4-Carboxyphenyl)amino)imidazo[1,2-a]pyridin-2-yl)benzoic acid], the IC50 at TDP1 [1] is greater than 100 µM.

`CS(=O)(=O)c1ccc2nc(-c3ccccc3)c(Nc3ccc(C(=O)O)cc3)n2c1` [Compound 8q, 4-((6-(Methylsulfonyl)-2-phenylimidazo[1,2-a]pyridin-3-yl)amino)benzoic acid] displayed an IC50 at TDP1 [1] of 1.8 µM.

In the case of `CS(=O)(=O)c1ccc2nc(-c3ccc(-c4ccccc4)cc3)c(Nc3ccc(C(=O)O)cc3)n2c1` [Compound 8r, 4-((2-([1,1'-Biphenyl]-4-yl)-6-(methylsulfonyl)imidazo[1,2-a]pyridin-3-yl)amino)benzoic acid], on TDP1 [1], the IC50 amounted to 9.95 µM.

On to `O=C(O)c1ccc(Cn2c(-c3ccccc3)nc3ccccc32)cc1` [Compound 9a, 4-((2-Phenyl-1H-benzo[d]imidazol-1-yl)methyl)benzoic acid], for which, on TDP1 [1], the IC50 was greater than 100 µM.

In the case of `O=C(O)c1ccc(Cn2c(-c3ccccc3)cc3ccccc32)cc1` [Compound 9b, 4-((2-Phenyl-1H-indol-1-yl)methyl)benzoic acid], the IC50 against TDP1 [1] was greater than 100 µM.

As for `O=C(O)c1ccc(Nc2c(-c3ccccc3)nc3cnccn23)cc1C(=O)O` [Compound 10a, 4-((2-Phenylimidazo[1,2-a]pyrazin-3-yl)amino)phthalic acid], the mode of inhibition entry on TDP1 [2] is “competitive”.

For the compound `O=C(O)c1ccc(Nc2c(-c3ccccc3)nc3ccccn23)cc1C(=O)O` [Compound 10b, 4-((2-Phenylimidazo[1,2-a]pyridin-3-yl)amino)phthalic acid], the mode of inhibition result on TDP1 [2] is “competitive”.
